Patent publication US20050090551A1, “Therapeutic use of methionine for the treatment or prevention of mucositis” (Board of Trustees of Southern Illinois University, priority 2003, published 2005)
Structures can show the parent of a compound that is named as a salt.

How the values were obtained:
CDDP nephrotoxicity = details: literature reports; cited from earlier work
CDDP anti-tumor action = details: literature reports; cited from earlier work
male Wistar rats [1] = experiment: Auditory Brainstem Testing (ABR) thresholds in CDDP-treated rats; type: in vivo, rat
tumor bearing animals = details: pre or post treatment, 150 mg/Kg x5, i.p.
[2] = tested on: Human salivary gland epithelial cells; details: various concentrations of D-methionine (1.0-0.1 mg/ml) six hours prior to 10 Gy; after 24 Hrs
Source text: One set was untreated as a control and another was irradiated with 10 Gy the following morning.

male Wistar rats [3] = tested on: male Wistar rats
male Wistar rats [4] = tested on: male Wistar rats; remark: listed apart in the source
male Wistar rats [5] = details: 75, 150 or 300 mg/kg D-methionine prior to 16 mg/kg CDDP
mice = details: 6 Gy/day for five days
Procedure: The experiment was conducted using a mouse model of radiation-induced lip erythema. Four groups of mice (n=5) were used. The first group (Group A) was an untreated, control group. The second group (Group B) was irradiated with ionizing radiation (6 Gy/day) for 5 days.

[6] = tested on: Walker 256 carcinosarcoma in the rat; details: Jones and Basinger; cited from earlier work
CDDP-induced weight loss = details: literature reports; cited from earlier work
[7] = tested on: NHIK 3025 in vitro human uterine cervix carcinoma in situ cancer cells; details: preadministration of methionine, presumably a racemic mixture; cited from earlier work
hamsters = details: Church et al; cited from earlier work
patients = details: cited from earlier work
CDDP ototoxicity = details: animals; literature reports; cited from earlier work

## C[C@H](CS)C(=O)N1CCC[C@H]1C(=O)O [Captropril]
CDDP nephrotoxicity
  CDDP nephroprotection: protects against CDDP nephrotoxicity

## O=C(O)CCCC[C@@H]1SC[C@@H]2NC(=O)N[C@@H]21 [Biotin]
CDDP nephrotoxicity
  CDDP nephroprotection: good CDDP nephroprotection
CDDP anti-tumor action
  effect on CDDP anti-tumor action: inhibits anti-tumor activity

## CSCC[C@@H](N)C(=O)O [D-methionine]
Male Wistar rats [1]; 75 mg/kg D-methionine i.p. 30 minutes prior to 16 mg/kg CDDP, 3 days later
  animals with complete otoprotection (no significant ABR threshold shift for any stimulus): 2/5
Male Wistar rats [1]; 150 mg/kg D-methionine i.p. 30 minutes prior to 16 mg/kg CDDP, 3 days later
  animals with complete otoprotection (no significant ABR threshold shift for any stimulus): 3/5
Male Wistar rats [1]; 300 mg/kg D-methionine i.p. 30 minutes prior to 16 mg/kg CDDP, group of 5, 3 days later
  animals with complete otoprotection for all stimulus conditions: 5
Male Wistar rats [1]; any level of D-methionine (75, 150, 300 mg/kg) prior to 16 mg/kg CDDP
  post-test ABR thresholds vs treated control group, all stimuli: significantly lower ABR thresholds than the treated control group
Tumor bearing animals
  interference with antitumor activity of ionizing radiation: did not interfere with antitumor activity of ionizing radiation
[2]
  apoptosis (cells having an apoptotic phenotype): about 20%
Male Wistar rats [3]; 300 mg/kg D-methionine prior to 16 mg/kg CDDP, 3 days
  weight loss vs treated control group: significantly less than that in the treated control group
Male Wistar rats [3]; 75, 150, 300 mg/kg D-methionine prior to 16 mg/kg CDDP
  CDDP-induced weight loss, dose dependence: diminished as D-methionine dosing increased
Male Wistar rats [4]; D-methionine prior to 16 mg/kg CDDP
  alopecia: coat and hair loss vs control group animals: significantly less hair loss
Male Wistar rats [4]; any level of D-methionine prior to 16 mg/kg CDDP
  animals surviving to the end of the study period: 15/15
Male Wistar rats [4]; morning of the third day, D-methionine prior to 16 mg/kg CDDP
  neuroprotection: activity and coordination vs surviving treated controls: noticeably more lively, active, and coordinated
CDDP nephrotoxicity
  CDDP nephroprotection: highly effective CDDP nephroprotection
Male Wistar rats [5]
  outer hair cell findings, middle and basal turns: only the treated control group showed significantly different findings from the untreated control group
CDDP anti-tumor action
  effect on CDDP anti-tumor action: without decreasing anti-tumor action
mice; 150 mg/kg one hour after irradiation
  lip erythema, post-treatment: prevented the occurrence of lip erythema
mice; 150 mg/kg six hours prior to irradiation
  lip erythema, pre-treatment: prevented the occurrence of lip erythema
[6]
  effect on CDDP anti-tumor action: does not inhibit CDDP anti-tumor action

## CC1=C(C(=O)O)N2C(=O)[C@@H](NC(=O)[C@H](N)c3ccccc3)[C@H]2SC1 [Cephalexin]
CDDP-induced weight loss
  protection against CDDP-induced weight loss: protects against CDDP-induced kidney dysfunction and weight loss

## CCOC(=O)[C@@H](N)CS [Ethyl-L-cysteinate]
CDDP nephrotoxicity
  CDDP nephroprotection: exacerbate CDDP nephrotoxicity

## CO[C@@]1(NC(=O)Cc2cccs2)C(=O)N2C(C(=O)O)=C(COC(N)=O)CS[C@@H]21 [cefoxitin]
CDDP nephrotoxicity
  CDDP nephroprotection: does not provide nephroprotection
CDDP-induced weight loss
  protection against CDDP-induced weight loss: some protection against CDDP-induced weight loss

## CSCC[C@H](N)C(=O)O (racemic) [methionine]
[7]
  effect on CDDP cytotoxicity: sensitized

## Cc1ncc(C[n+]2csc(CCO)c2C)c(N)n1 [thiamine-HCl]
CDDP nephrotoxicity
  CDDP nephroprotection: does not protect against cisplatin nephrotoxicity or weight loss
CDDP-induced weight loss
  protection against CDDP-induced weight loss: does not protect against cisplatin nephrotoxicity or weight loss

## NCCCNCCSP(=O)(O)O [WR2721]
hamsters
  protection from ototoxicity or mortality: no WR2721 protection from ototoxicity or mortality
patients; WR2721 prior to CDDP, Glover et al.
  patients with mild to severe hearing loss: 20 of 36
patients; patients pretreated with WR2721 prior to CDDP, Rubin et al.
  incidence of significant hearing threshold shift: 45%
CDDP nephrotoxicity
  CDDP nephroprotection: excellent CDDP nephroprotection

## CC1(C)S[C@@H]2[C@H](NC(=O)Cc3ccccc3)C(=O)N2[C@H]1C(=O)[O-].[Na+] [sodium salt of penicillin G, penicillin G]
CDDP nephrotoxicity
  CDDP nephroprotection: does not protect against CDDP nephrotoxicity or weight loss
CDDP-induced weight loss
  protection against CDDP-induced weight loss: does not protect against CDDP nephrotoxicity or weight loss

## Nc1ccc(S(=O)(=O)Nc2nccs2)cc1 [Sulfathiazole]
CDDP nephrotoxicity
  CDDP nephroprotection: provides protection against CDDP nephrotoxicity
CDDP-induced weight loss
  protection against CDDP-induced weight loss: not weight loss

## O=S([O-])([O-])=S.[Na+].[Na+] [STS, sodium thiosulfate]
CDDP ototoxicity
  CDDP otoprotection: good CDDP otoprotection
CDDP nephrotoxicity
  CDDP nephroprotection: reduces CDDP nephrotoxicity and ototoxicity
CDDP anti-tumor action
  effect on CDDP anti-tumor action: reduces the latter's tumoricidal action

## CSc1ncccc1C(=O)O [2-(methylthio)nicotinic acid]
CDDP nephrotoxicity
  CDDP nephroprotection: does not provide nephroprotection

## CSCC[C@H](N)C(N)=O [L-methioninamide]
CDDP nephrotoxicity
  CDDP nephroprotection: excellent CDDP nephroprotection
CDDP anti-tumor action
  effect on CDDP anti-tumor action: impairs CDDP anti-tumor action

## CC(S)C(=O)NCC(=O)O (stereo not drawn) [N-(2-mercapto-propionyl)glycine]
CDDP nephrotoxicity
  CDDP nephroprotection: exacerbate CDDP nephrotoxicity
